Experimental data reported in patent US20110306668A1 (NATIONAL TSING HUA UNIVERSITY, priority 2010, published 2011).

Tests used:
Format in all cases: cell-based
[1] = tested on: Tramp C1 (transgenic adenocarcinoma of the mouse prostate); experiment: Cytotoxicity by MTT assay, TRAMP C-1 cells; conditions: for IC50: Mus musculus, TRAMP-C1, 48 h, TRAMP C-1 cells, MTT, incubation of 2 days, read-out: IC50 values, inhibition of growth of cells
Method: (§1) The cell lines were used in the present invention, including C26 (solid murine colon carcinoma), A549 (Human type II epithelial cell line, from American Type Culture Collection, Manassas, Va.), MCF7 (solid human estrogen receptor positive breast carcinoma) and Tramp C1 (transgenic adenocarcinoma of the mouse prostate).
(§2) 10 μL combinatorial compound was added into the well of microtiterplate planted with 100 μL of abovementioned cell lines in a concentration of 30000 cells/mL. After an incubation of 2 days, the supernatants were washed, followed by adding MTT reagents. After 4 hrs, absorbance at 580 nm was recorded according to the usual protocol.

[2] = tested on: A549 (Human type II epithelial cell line); experiment: Cytotoxicity by MTT assay, A549 cells; conditions: 48 h, incubation of 2 days, read-out: IC50 values, inhibition of growth of cells
Method: as §1, §2

[3] = tested on: C26 (solid murine colon carcinoma); experiment: Cytotoxicity by MTT assay, C26 cells; conditions: Mus musculus, 48 h, incubation of 2 days, read-out: IC50 values, inhibition of growth of cells
Method: as §1, §2

[4] = tested on: MCF7 (solid human estrogen receptor positive breast carcinoma); experiment: Cytotoxicity by MTT assay, MCF7 cells; conditions: 48 h, incubation of 2 days, read-out: IC50 values, inhibition of growth of cells
Method: as §1, §2

Row | SMILES | IC50 [1] | IC50 [2] | IC50 [3] | IC50 [4] | cytotoxicity against Tramp C-1 cell ([1]; Tramp C-1 cell, result in words)
1 | O=C(O)CCC(=O)c1ccc(-c2ccccc2)cc1 [Fenbufen, 4-(biphenyl-4-yl)-4-oxobutanoic acid, reference compound] | > 100 µM | > 100 µM | > 100 µM |  | 
2 | Cc1ccc(C)c(OCCCC(C)(C)C(=O)NCCCCNC(=O)CCC(=O)c2ccc(-c3ccccc3)cc2)c1 [compound 12, N-(4-(4-(biphenyl-4-yl)-4-oxobutanamido)butyl)-5-(2,5-dimethylphenoxy)-2,2-dimethylpentanamide] | 21 µM | 9 µM | 15 µM | 2 µM | 
3 | CCCCC(CC)C(=O)NCCCCNC(=O)CCC(=O)c1ccc(-c2ccccc2)cc1 (stereo not shown) [compound 13, N-(4-(4-(biphenyl-4-yl)-4-oxobutanamido)butyl)-2-ethylhexanamide] | 18 µM | 17 µM | 15 µM | < 1 µM | 
4 | C=C(CC)C(=O)c1ccc(OCC(=O)NCCCCNC(=O)CCC(=O)c2ccc(-c3ccccc3)cc2)c(Cl)c1Cl [compound 14, 4-(biphenyl-4-yl)-N-(4-(2-(2,3-dichloro-4-(2-methylenebutanoyl)phenoxy)acetamido)butyl)-4-oxobutanamide] | > 100 µM | 19 µM | 35 µM | 5 µM | void of cytotoxicity
